According to patent US20240150360A1 (THE REGENTS OF THE UNIVERSITY OF MICHIGAN, priority 2021, published 2024):
Like-named read-outs stand apart in the source and are kept apart here.

Experiments:
CBP = biological target: T1, CBP (Homo sapiens, UniProt Q92793); assay: CBP degradation in 22Rv1 cells (5 h); type: cell-based; details: for Dmax: 22Rv1, 5 h, read-out: CBP Degradation (22Rv1, 5 h) DCmax
T1 construct: endogenous in cells; host or cells: 22Rv1 (ATCC CRL-2505) human prostate cancer cells
T1 sequence (Q92793 whole entry): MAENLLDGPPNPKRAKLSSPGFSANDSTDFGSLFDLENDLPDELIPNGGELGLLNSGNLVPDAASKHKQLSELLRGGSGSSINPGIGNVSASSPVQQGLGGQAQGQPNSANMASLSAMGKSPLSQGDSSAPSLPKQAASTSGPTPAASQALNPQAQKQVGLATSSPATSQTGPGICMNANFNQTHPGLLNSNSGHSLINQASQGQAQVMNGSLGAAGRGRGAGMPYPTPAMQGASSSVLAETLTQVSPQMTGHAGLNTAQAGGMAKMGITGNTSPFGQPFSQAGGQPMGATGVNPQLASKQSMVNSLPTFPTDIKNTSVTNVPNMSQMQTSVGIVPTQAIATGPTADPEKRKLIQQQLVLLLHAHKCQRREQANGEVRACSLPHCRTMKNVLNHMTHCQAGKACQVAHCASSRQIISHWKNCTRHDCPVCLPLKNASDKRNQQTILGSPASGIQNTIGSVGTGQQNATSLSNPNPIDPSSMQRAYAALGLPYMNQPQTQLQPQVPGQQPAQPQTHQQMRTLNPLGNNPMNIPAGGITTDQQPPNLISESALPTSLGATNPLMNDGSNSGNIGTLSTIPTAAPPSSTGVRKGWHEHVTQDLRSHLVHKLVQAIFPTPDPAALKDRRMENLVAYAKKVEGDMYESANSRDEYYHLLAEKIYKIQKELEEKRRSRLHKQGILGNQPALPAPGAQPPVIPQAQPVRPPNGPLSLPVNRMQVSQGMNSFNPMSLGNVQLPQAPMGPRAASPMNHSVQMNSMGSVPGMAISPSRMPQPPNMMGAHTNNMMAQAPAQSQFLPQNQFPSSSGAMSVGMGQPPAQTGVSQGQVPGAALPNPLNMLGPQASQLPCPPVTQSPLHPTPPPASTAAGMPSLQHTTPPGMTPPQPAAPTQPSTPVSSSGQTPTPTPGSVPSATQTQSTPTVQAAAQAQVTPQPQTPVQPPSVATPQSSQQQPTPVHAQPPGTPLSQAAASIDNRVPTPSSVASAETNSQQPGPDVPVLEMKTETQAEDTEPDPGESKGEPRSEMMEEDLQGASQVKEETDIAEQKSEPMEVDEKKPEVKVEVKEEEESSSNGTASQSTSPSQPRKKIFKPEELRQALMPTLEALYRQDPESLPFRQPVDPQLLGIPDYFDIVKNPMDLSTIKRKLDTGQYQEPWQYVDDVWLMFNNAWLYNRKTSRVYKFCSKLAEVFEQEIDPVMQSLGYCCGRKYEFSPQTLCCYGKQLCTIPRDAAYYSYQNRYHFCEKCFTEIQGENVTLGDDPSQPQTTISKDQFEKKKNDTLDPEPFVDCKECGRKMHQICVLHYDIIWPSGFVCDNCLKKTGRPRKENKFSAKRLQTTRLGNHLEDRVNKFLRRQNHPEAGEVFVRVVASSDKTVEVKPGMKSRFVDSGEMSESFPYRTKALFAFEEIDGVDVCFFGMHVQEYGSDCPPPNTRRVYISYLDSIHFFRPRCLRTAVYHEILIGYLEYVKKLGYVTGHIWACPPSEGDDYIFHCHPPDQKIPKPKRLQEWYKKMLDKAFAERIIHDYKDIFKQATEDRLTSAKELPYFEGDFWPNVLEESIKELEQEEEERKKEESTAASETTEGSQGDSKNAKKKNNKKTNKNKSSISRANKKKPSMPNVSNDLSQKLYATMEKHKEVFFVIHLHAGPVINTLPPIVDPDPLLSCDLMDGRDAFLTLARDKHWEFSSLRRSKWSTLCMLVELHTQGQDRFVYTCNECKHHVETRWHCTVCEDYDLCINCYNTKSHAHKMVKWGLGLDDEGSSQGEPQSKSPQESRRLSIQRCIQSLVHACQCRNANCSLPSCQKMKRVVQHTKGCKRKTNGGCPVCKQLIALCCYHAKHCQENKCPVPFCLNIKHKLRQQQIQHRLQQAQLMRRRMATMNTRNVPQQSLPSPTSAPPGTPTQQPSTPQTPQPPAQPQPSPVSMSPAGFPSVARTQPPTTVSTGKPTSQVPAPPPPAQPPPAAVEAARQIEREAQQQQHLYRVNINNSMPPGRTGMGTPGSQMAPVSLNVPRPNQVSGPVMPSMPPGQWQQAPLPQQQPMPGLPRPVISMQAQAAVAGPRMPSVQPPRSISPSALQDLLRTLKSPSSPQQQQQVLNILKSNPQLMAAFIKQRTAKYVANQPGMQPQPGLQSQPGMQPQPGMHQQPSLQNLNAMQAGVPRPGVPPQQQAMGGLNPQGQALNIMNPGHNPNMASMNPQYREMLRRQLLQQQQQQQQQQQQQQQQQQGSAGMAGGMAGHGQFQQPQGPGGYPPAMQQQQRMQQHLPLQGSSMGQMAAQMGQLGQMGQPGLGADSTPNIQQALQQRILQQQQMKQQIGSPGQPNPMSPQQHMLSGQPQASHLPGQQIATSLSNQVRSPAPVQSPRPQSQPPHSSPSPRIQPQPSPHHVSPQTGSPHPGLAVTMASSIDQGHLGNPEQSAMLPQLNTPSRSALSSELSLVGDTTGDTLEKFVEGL
Source text: (§1) Biological Assays. […] Cells with 3-8 passages after purchase were used in experiments.

P300 = biological target: T2, P300 (Homo sapiens, UniProt Q09472); assay: P300 degradation in 22Rv1 cells (5 h); type: cell-based; details: for Dmax: read-out: P300 Degradation (22Rv1, 5 h) DCmax
T2 construct: endogenous in cells; host or cells: 22Rv1 (ATCC CRL-2505) human prostate cancer cells
T2 sequence (Q09472 whole entry): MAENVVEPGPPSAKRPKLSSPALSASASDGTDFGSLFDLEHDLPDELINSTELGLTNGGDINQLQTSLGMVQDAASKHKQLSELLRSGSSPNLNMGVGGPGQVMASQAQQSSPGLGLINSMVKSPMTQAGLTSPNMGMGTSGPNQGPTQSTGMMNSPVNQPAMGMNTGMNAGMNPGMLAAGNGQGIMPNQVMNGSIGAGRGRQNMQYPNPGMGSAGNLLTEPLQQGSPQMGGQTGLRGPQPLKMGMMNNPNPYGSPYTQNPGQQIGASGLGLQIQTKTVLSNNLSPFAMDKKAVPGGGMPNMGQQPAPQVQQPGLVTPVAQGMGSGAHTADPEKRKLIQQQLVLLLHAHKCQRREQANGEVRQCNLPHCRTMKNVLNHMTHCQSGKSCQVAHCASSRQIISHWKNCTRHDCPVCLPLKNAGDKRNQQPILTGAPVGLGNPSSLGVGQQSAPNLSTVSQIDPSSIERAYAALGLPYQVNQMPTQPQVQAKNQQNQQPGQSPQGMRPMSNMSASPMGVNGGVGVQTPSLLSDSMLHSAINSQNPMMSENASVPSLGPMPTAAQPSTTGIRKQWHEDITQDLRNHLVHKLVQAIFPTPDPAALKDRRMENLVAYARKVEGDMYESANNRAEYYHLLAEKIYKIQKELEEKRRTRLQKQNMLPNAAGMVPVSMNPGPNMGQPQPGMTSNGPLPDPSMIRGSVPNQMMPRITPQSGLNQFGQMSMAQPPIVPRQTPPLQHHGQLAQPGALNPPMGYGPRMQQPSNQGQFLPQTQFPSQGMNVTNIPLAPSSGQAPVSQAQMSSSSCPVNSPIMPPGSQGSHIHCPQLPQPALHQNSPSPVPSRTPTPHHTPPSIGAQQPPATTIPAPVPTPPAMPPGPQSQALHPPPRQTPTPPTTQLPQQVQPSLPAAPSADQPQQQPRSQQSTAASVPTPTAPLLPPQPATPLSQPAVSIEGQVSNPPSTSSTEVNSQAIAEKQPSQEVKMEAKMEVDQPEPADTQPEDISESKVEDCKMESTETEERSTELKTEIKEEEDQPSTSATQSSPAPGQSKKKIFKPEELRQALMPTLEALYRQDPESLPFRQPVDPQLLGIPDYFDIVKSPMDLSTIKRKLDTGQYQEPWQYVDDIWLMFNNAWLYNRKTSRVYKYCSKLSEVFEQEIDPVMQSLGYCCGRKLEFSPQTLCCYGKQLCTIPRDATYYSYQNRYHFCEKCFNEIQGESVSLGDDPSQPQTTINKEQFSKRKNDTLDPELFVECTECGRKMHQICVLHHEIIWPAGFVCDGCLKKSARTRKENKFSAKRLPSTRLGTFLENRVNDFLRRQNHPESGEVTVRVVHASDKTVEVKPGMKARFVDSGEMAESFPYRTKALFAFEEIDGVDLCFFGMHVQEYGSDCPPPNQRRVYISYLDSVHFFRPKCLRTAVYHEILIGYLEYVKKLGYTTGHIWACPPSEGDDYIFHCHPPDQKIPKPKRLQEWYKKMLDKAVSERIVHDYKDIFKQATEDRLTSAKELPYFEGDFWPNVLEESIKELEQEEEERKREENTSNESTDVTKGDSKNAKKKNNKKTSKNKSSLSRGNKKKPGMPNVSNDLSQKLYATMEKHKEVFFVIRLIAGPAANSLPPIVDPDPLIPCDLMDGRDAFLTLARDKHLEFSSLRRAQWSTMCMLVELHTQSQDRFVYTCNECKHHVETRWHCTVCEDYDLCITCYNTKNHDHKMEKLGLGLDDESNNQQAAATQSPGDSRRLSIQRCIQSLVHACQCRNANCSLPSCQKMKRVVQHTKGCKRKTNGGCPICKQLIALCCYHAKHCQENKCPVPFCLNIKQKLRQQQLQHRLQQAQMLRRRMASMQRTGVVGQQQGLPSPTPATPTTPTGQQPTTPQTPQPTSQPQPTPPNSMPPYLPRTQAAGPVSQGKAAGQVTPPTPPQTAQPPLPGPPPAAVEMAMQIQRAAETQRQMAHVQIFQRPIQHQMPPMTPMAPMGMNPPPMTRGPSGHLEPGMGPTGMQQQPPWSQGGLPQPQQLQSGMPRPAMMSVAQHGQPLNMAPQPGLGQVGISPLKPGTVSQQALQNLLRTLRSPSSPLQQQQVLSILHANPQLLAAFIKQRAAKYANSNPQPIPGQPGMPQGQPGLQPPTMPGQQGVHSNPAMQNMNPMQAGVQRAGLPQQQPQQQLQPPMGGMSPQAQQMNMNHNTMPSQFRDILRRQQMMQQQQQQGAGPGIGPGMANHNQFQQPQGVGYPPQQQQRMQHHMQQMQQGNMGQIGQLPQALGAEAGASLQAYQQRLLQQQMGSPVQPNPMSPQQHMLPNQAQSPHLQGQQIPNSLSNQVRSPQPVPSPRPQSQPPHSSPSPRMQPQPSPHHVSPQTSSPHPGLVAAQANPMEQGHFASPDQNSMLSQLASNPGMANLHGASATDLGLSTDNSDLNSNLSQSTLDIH
Source text: as §1

22Rv1 cells = assay: Cell growth inhibition assay (CellTiter-Glo) in 22Rv1; type: cell-based, human; details: Homo sapiens, 22Rv1 cells, 96 h incubation, read-out: Cell Growth Inhibition (IC50) 22Rv1
Procedure, shortened: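 22Rv1 prostate cancer cells (passages 3-8, DMEM with 10% FBS) were seeded at 4000 cells/well with compound, 3-fold dilutions from 10 μM final. After 96 h at 37° C and 5% CO2, growth was read by CellTiter-Glo 2.0 luminescence.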

HL60 = assay: Cell growth inhibition in HL60; type: cell-based; details: Homo sapiens, HL-60, HL60 cells; read-out: Cell Growth Inhibition (IC50) HL60

Compound: Cc1noc(C)c1-c1ccc2c(c1)nc([C@@H]1CCCC(=O)N1c1ccc(F)c(F)c1)n2C1CCN(C(=O)CN2CCc3cc4c(cc3C2)C(=O)N(C2CCC(=O)NC2=O)C4=O)CC1 (stereo partly drawn) [CP-063, 6-(2-(4-(2-((S)-1-(3,4-difluorophenyl)-6-oxopiperidin-2-yl)-5-(3,5-dimethylisoxazol-4-yl)-1H-benzo[d]imidazol-1-yl)piperidin-1-yl)-2-oxoethyl)-2-(2,6-dioxopiperidin-3-yl)-5,6,7,8-tetrahydro-1H-pyrrolo[3,4-g]isoquinoline-1,3(2H)-dione]
- Dmax (CBP; 22Rv1 cells, 5 h): < 50%
- DC50 (CBP; 22Rv1 cells, 5 h): > 1 µM
- DC50 (P300; 22Rv1 cells, 5 h): > 1 µM
- Dmax (P300; 22Rv1 cells, 5 h): < 50%
- IC50 (22Rv1 cells; 22Rv1, 96 h): > 10 µM
- IC50 (HL60): > 10 µM

Compound: CC(=O)N1Cc2c(N3CCCc4cc(-c5ccnn5C)c(C(F)F)cc43)nn(C3CCN(C(=O)CN4Cc5cc6c(cc5C4)C(=O)N(C4CCC(=O)NC4=O)C6=O)CC3)c2C(C)(C)C1 (stereo not drawn) [CP-085, 6-(2-(4-(5-acetyl-3-(7-(difluoromethyl)-6-(1-methyl-1H-pyrazol-5-yl)-3,4-dihydroquinolin-1(2H)-yl)-7,7-dimethyl-4,5,6,7-tetrahydro-1H-pyrazolo[4,3-c]pyridin-1-yl)piperidin-1-yl)-2-oxoethyl)-2-(2,6-dioxopiperidin-3-yl)-6,7-dihydropyrrolo[3,4-f]isoindole-1,3(2H,5H)-dione]
- Dmax (CBP; 22Rv1 cells, 5 h): > 70%
- DC50 (CBP; 22Rv1 cells, 5 h): < 0.01 µM
- DC50 (P300; 22Rv1 cells, 5 h): > 1 µM
- Dmax (P300; 22Rv1 cells, 5 h): < 50%
- IC50 (22Rv1 cells; 22Rv1, 96 h): > 10 µM
- IC50 (HL60): > 10 µM

Compound: CC(=O)N1CCc2c(c(N3CCCc4cc(-c5cnn(C)c5)c(C(F)F)cc43)nn2C2CCC(C(C)CN3Cc4cc5c(cc4C3)C(=O)N(C3CCC(=O)NC3=O)C5=O)CC2)C1 (stereo not drawn) [CP-051, 6-(2-(4-(5-acetyl-3-(7-(difluoromethyl)-6-(1-methyl-1H-pyrazol-4-yl)-3,4-dihydroquinolin-1(2H)-yl)-4,5,6,7-tetrahydro-1H-pyrazolo[4,3-c]pyridin-1-yl)cyclohexyl)propyl)-2-(2,6-dioxopiperidin-3-yl)-6,7-dihydropyrrolo[3,4-f]isoindole-1,3(2H,5H)-dione]
- Dmax (CBP; 22Rv1 cells, 5 h): > 90%
- DC50 (CBP; 22Rv1 cells, 5 h): < 0.01 µM
- DC50 (P300; 22Rv1 cells, 5 h): < 0.01 µM
- Dmax (P300; 22Rv1 cells, 5 h): > 90%
- IC50 (22Rv1 cells; 22Rv1, 96 h): < 0.1 µM
- IC50 (HL60): < 0.1 µM

Compound: Cn1cc(-c2cc3c(cc2C(F)F)N(c2nn(C4CCN(C(=O)CN5Cc6cc7c(cc6C5)C(=O)N(C5CCC(=O)NC5=O)C7=O)CC4)c4c2CN(C(=O)CF)CC4)CCC3)cn1 (stereo not drawn) [CP-053, 6-(2-(4-(3-(7-(difluoromethyl)-6-(1-methyl-1H-pyrazol-4-yl)-3,4-dihydroquinolin-1(2H)-yl)-5-(2-fluoroacetyl)-4,5,6,7-tetrahydro-1H-pyrazolo[4,3-c]pyridin-1-yl)piperidin-1-yl)-2-oxoethyl)-2-(2,6-dioxopiperidin-3-yl)-6,7-dihydropyrrolo[3,4-f]isoindole-1,3(2H,5H)-dione]
- Dmax (CBP): > 70%
- DC50 (CBP; 22Rv1 cells, 5 h): < 0.01 µM
- Dmax (P300; 22Rv1, 5 h): > 50%
- DC50 (P300; 22Rv1 cells, 5 h): < 0.1 µM
- IC50 (22Rv1 cells): < 1 µM
- IC50 (HL60): < 1 µM

Compound: CC(=O)N1CCc2c(c(N3CCCc4cc(CCC5CC5)c(C(F)F)cc43)nn2C2CCN(C(=O)CN3Cc4cc5c(cc4C3)C(=O)N(C3CCC(=O)NC3=O)C5=O)CC2)C1 (stereo not drawn) [CP-025, 6-(2-(4-(5-acetyl-3-(6-(2-cyclopropylethyl)-7-(difluoromethyl)-3,4-dihydroquinolin-1(2H)-yl)-4,5,6,7-tetrahydro-1H-pyrazolo[4,3-c]pyridin-1-yl)piperidin-1-yl)-2-oxoethyl)-2-(2,6-dioxopiperidin-3-yl)-6,7-dihydropyrrolo[3,4-f]isoindole-1,3(2H,5H)-dione]
- Dmax (CBP; 22Rv1 cells, 5 h): < 50%
- DC50 (CBP; 22Rv1 cells, 5 h): < 0.01 µM
- DC50 (P300; 22Rv1 cells, 5 h): < 0.01 µM
- Dmax (P300; 22Rv1 cells, 5 h): > 70%
- IC50 (22Rv1 cells; 22Rv1, 96 h): < 1 µM
- IC50 (HL60): < 0.1 µM

Compound: Cc1noc(C)c1-c1ccc2c(c1)nc([C@@H]1CCCC(=O)N1c1ccc(F)c(F)c1)n2C1CCN(C(=O)CN2CCc3cc4c(cc3CC2)C(=O)N(C2CCC(=O)NC2=O)C4=O)CC1 (stereo partly drawn) [CP-064, 7-(2-(4-(2-((S)-1-(3,4-difluorophenyl)-6-oxopiperidin-2-yl)-5-(3,5-dimethylisoxazol-4-yl)-1H-benzo[d]imidazol-1-yl)piperidin-1-yl)-2-oxoethyl)-2-(2,6-dioxopiperidin-3-yl)-6,7,8,9-tetrahydroazepino[4,5-f]isoindole-1,3(2H,5H)-dione]
- Dmax (CBP; 22Rv1 cells, 5 h): < 50%
- DC50 (CBP; 22Rv1 cells, 5 h): > 1 µM
- DC50 (P300; 22Rv1 cells, 5 h): > 1 µM
- Dmax (P300; 22Rv1 cells, 5 h): < 50%
- IC50 (22Rv1 cells; 22Rv1, 96 h): > 10 µM
- IC50 (HL60): > 10 µM

Compound: CC(=O)N1CCc2c(c(N3CCCc4cc(Cl)c(C(F)F)cc43)nn2C2CCN(C(=O)CN3Cc4cc5c(cc4C3)C(=O)N(C3CCC(=O)NC3=O)C5=O)CC2)C1 (stereo not drawn) [CP-017, 6-(2-(4-(5-acetyl-3-(6-chloro-7-(difluoromethyl)-3,4-dihydroquinolin-1(2H)-yl)-4,5,6,7-tetrahydro-1H-pyrazolo[4,3-c]pyridin-1-yl)piperidin-1-yl)-2-oxoethyl)-2-(2,6-dioxopiperidin-3-yl)-6,7-dihydropyrrolo[3,4-f]isoindole-1,3(2H,5H)-dione]
- Dmax (CBP; 22Rv1 cells, 5 h): < 50%
- DC50 (CBP; 22Rv1 cells, 5 h): > 1 µM
- DC50 (P300; 22Rv1 cells, 5 h): > 1 µM
- Dmax (P300; 22Rv1 cells, 5 h): < 50%
- IC50 (22Rv1 cells; 22Rv1, 96 h): > 10 µM
- IC50 (HL60): > 10 µM

Compound: Cc1noc(C)c1-c1ccc2c(c1)nc([C@@H]1CCCC(=O)N1c1ccc(F)c(F)c1)n2C1CCN(C(=O)CCCN2Cc3cc4c(cc3C2)C(=O)N(C2CCC(=O)NC2=O)C4=O)CC1 (stereo partly drawn) [CP-066, 6-(4-(4-(2-((S)-1-(3,4-difluorophenyl)-6-oxopiperidin-2-yl)-5-(3,5-dimethylisoxazol-4-yl)-1H-benzo[d]imidazol-1-yl)piperidin-1-yl)-4-oxobutyl)-2-(2,6-dioxopiperidin-3-yl)-6,7-dihydropyrrolo[3,4-f]isoindole-1,3(2H,5H)-dione]
- Dmax (CBP; 22Rv1 cells, 5 h): < 50%
- DC50 (CBP; 22Rv1 cells, 5 h): > 1 µM
- DC50 (P300; 22Rv1 cells, 5 h): > 1 µM
- Dmax (P300; 22Rv1 cells, 5 h): < 50%
- IC50 (22Rv1 cells; 22Rv1, 96 h): > 10 µM
- IC50 (HL60): > 10 µM

Compound: Cn1cc(-c2cc3c(cc2C(F)F)N(c2nn(C4CCN(C(=O)CN5Cc6cc7c(cc6C5)C(=O)N(C5CCC(=O)NC5=O)C7=O)CC4)c4c2CN(CC(F)(F)F)CC4)CCC3)cn1 (stereo not drawn)
- Dmax (CBP; 22Rv1 cells, 5 h): < 50%
- DC50 (CBP; 22Rv1 cells, 5 h): < 1 µM
- DC50 (P300; 22Rv1 cells, 5 h): > 1 µM
- Dmax (P300; 22Rv1 cells, 5 h): < 50%
- IC50 (22Rv1 cells; 22Rv1, 96 h): > 10 µM
- IC50 (HL60): < 10 µM

Compound: CC(=O)N1CCc2c(c(N3CCCc4cc(C)c(C(F)F)cc43)nn2C2CCN(C(=O)CN3Cc4cc5c(cc4C3)C(=O)N(C3CCC(=O)NC3=O)C5=O)CC2)C1 (stereo not drawn) [CP-011, 6-(2-(4-(5-acetyl-3-(7-(difluoromethyl)-6-methyl-3,4-dihydroquinolin-1(2H)-yl)-4,5,6,7-tetrahydro-1H-pyrazolo[4,3-c]pyridin-1-yl)piperidin-1-yl)-2-oxoethyl)-2-(2,6-dioxopiperidin-3-yl)-6,7-dihydropyrrolo[3,4-f]isoindole-1,3(2H,5H)-dione]
- Dmax (CBP; 22Rv1 cells, 5 h): > 90%
- DC50 (CBP; 22Rv1 cells, 5 h): < 0.01 µM
- DC50 (P300; 22Rv1 cells, 5 h): < 0.01 µM
- Dmax (P300; 22Rv1 cells, 5 h): > 70%
- IC50 (22Rv1 cells; 22Rv1, 96 h): < 1 µM
- IC50 (HL60): < 1 µM

Compound: CC(=O)N1CCc2c(c(N3CCCc4cc(-c5cccs5)c(C(F)F)cc43)nn2C2CCN(C(=O)CN3Cc4cc5c(cc4C3)C(=O)N(C3CCC(=O)NC3=O)C5=O)CC2)C1 (stereo not drawn) [CP-024, 6-(2-(4-(5-acetyl-3-(7-(difluoromethyl)-6-(thiophen-2-yl)-3,4-dihydroquinolin-1(2H)-yl)-4,5,6,7-tetrahydro-1H-pyrazolo[4,3-c]pyridin-1-yl)piperidin-1-yl)-2-oxoethyl)-2-(2,6-dioxopiperidin-3-yl)-6,7-dihydropyrrolo[3,4-f]isoindole-1,3(2H,5H)-dione]
- Dmax (CBP; 22Rv1 cells, 5 h): > 90%
- DC50 (CBP; 22Rv1 cells, 5 h): < 0.01 µM
- DC50 (P300; 22Rv1 cells, 5 h): < 0.01 µM
- Dmax (P300; 22Rv1 cells, 5 h): > 70%
- IC50 (22Rv1 cells; 22Rv1, 96 h): < 1 µM
- IC50 (HL60): < 0.1 µM
